In patent US11306082B2, “Esters of dihydrotetrabenazine” (Foresee Pharmaceuticals Co., Ltd., priority 2017, dated 2022):
In brackets after ≈: the same amount, converted by molar mass.

Assays:
[1] = Color stability in organic solvents at 37° C.; type: physicochemical; conditions: incubation at 37° C. for 7 days, organic solvents (FIG. 1)
[2] = Aqueous solubility of compounds; type: physicochemical; conditions: for aqueous solubility compared with compound IV: all tested conditions; for solubility: aqueous buffer, thermodynamic from solid, 37° C.
Experimental: Compound suspensions (2 mg/m L) in various aqueous solutions, including 10 mM pH 4.0 citrate-saline buffer, 10 mM pH 5.0 citrate-saline buffer, 10 mM pH 5.8 PBS, 10 mM pH 7.4 PBS, 10 mM pH 8.5 borate-saline buffer, pure water and serum, were stirred at 37° C. for 2-3 days. Daily, 0.5 to 1 mL aliquots were taken and centrifuged at 14,000 rpm for 2 min without temperature control. The supernatant was analyzed by HPLC to determine the amount of dissolved compounds.

[3] = Solubility in pharmaceutical acceptable organic solvents; type: physicochemical; conditions: for solubility: organic solvent or mixture, thermodynamic from solid, 37° C.
Experimental: Previously, non-aqueous solvents, such as organic solvents, have long been utilized in injectable pharmaceutical products to dissolve water-insoluble drugs. Here, the solubility of compounds of the present application in various organic solvents were tested. The compound suspensions in various pharmaceutical acceptable organic solvents, including dimethylacetamide (DMAc), Dimethyl sulfoxide (DMSO), triacetin (TA), were stirred at 37° C. at designed time interval. At the designed time point, 0.5 mL aliquots were taken and centrifuged at 14,000 rpm for 2 min without temperature control. The supernatant was diluted with ACN and then analyzed by HPLC to determine the amount of dissolved compounds.

[4] = target: Vesicular Monoamine Transporter Isoform 2 (VMAT2) (UniProt Q01827); experiment: VMAT2 competition binding assay ([3H]dihydrotetrabenazine, whole brain membranes); conditions: for IC50: read-out: VMAT2 binding affinity IC50, [3H]Dihydrotetrabenazine 10 nM, 30 min at 25° C.; for Ki: read-out: VMAT2 binding affinity Ki, Cheng-Prusoff from IC50
Experimental: IC50 values were determined by a non-linear, least squares regression analysis using MathIQ™ (ID Business Solutions Ltd., UK).

[5] = Solubility in pharmaceutical acceptable oils; type: physicochemical; conditions: for solubility in pharmaceutical acceptable oils (in words): castor, peanut, soybean oil; for solubility: oil or lipid, thermodynamic from solid, 37° C.
Experimental: Conventionally, fatty acids are used to conjugate with a drug to enhance drug's lipophilicity to increase its solubility in oils. The solubility of compounds of the present application in various oils were tested. The suspension of compounds in various pharmaceutical acceptable oils, including castor oil, sesame oil, cottonseed oil, peanut oil and soybean oil, were stirred at 37° C. for 2-3 days. At designed time point, about 200 to 300 μL aliquots were taken and centrifuged at 14,000 rpm for 2 min without temperature control. The supernatant was carefully withdrawn and extracted with 9 folds of ACN. The mixture was then vortexed for 30 sec and subsequently centrifuged at 14,000 rpm for 2 min without temperature control. The supernatant (300 uL) was taken and diluted with 1 fold of isopropanol (IPA) and then analyzed by HPLC to determine the amount of dissolved compounds. The oil without compound after same extraction/dilution step was used as control. […] The higher oil solubility can be advantageously used to make long acting or sustained release formulation to deliver the active compounds.

[6] = human liver assay, response in application Ser. No. 11/937,445; cited from earlier work
VMAT2 [7] = target: VMAT2 (Rattus norvegicus, UniProt Q01827); conditions: as disclosed in U.S. Pat. No. 8,039,627; read-out: VMAT2 binding affinity, Ki; cited from earlier work
Sequence of VMAT2 (Rattus norvegicus, UniProt Q01827) (Q01827 whole entry): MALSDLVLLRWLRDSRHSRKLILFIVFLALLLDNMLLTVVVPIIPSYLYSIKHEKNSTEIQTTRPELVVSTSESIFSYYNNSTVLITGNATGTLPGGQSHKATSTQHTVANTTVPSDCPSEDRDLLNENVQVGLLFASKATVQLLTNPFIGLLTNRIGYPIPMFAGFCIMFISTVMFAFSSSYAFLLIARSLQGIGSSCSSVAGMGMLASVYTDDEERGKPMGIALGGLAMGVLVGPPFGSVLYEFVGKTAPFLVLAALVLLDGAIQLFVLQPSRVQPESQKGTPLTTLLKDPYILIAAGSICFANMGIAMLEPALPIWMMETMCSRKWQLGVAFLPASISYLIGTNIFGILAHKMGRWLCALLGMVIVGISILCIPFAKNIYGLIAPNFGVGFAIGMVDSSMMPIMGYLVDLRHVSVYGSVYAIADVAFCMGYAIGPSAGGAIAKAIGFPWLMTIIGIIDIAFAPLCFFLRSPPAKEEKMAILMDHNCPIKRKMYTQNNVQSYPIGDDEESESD

VMAT2 [8] = conditions: see 17 of the Declaration; cited from earlier work
[9] = tested on: porcine liver esterase (PLE); experiment: Enzymatic ester hydrolysis via porcine liver esterase; type: in vitro ADME
VMAT2 [10] = target: VMAT2 (Bos taurus, UniProt Q27963); conditions: Scherman et al., 1983; cited from earlier work
Sequence of VMAT2 (Bos taurus, UniProt Q27963) (Q27963 whole entry): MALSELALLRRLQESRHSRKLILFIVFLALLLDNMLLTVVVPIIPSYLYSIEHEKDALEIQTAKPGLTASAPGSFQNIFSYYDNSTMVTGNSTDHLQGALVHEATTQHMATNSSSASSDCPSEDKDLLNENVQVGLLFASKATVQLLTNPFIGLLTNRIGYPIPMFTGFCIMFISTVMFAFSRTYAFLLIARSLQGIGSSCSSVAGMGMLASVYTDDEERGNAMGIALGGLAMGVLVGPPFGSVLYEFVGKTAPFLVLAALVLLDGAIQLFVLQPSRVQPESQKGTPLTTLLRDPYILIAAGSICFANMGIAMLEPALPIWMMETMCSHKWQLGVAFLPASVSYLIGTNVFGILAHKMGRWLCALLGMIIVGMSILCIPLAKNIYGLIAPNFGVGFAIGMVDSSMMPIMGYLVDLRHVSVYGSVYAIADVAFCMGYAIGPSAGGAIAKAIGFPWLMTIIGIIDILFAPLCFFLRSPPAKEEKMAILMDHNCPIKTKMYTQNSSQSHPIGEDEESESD

[11] = borate-saline buffer, Borate (10 mM, pH 8.5)
[12] = citrate-saline buffer, Citrate buffer (10 mM, pH 5.0)

| color change in organic solvents [1] | aqueous solubility compared with compound IV [2] | solubility ([2]; PBS (10 mM, pH 5.8)) [µg/mL] | solubility ([2]; PBS (10 mM, pH 7.4)) [µg/mL] | solubility [2, 11] [µg/mL] | solubility [2, 12] [µg/mL] | solubility ([3]; DMAc) [µg/mL] | solubility ([3]; DMSO) [µg/mL] | IC50 [4] [nM] | Ki [4] [nM] | solubility in pharmaceutical acceptable oils (in words) [5] | solubility ([5]; Castor oil) [µg/mL] | solubility ([5]; Peanut oil) [µg/mL] | solubility ([5]; Soybean oil) [µg/mL] | solubility ([3]; Triacetin) [µg/mL] | SMILES | conversion to (+)-α-DHTBZ [6] | further results |
| --- | --- | --- | --- | --- | --- | --- | --- | --- | --- | --- | --- | --- | --- | --- | --- | --- | --- |
| no or minimal color change | significantly lower aqueous solubility | < 1 | < 1 | 1.7 (≈ 0.00265 mM) | < 1 | 8810 (≈ 13.7 mM) | 150 (≈ 0.234 mM) | > 10000 | > 10000 | fair to good solubility | 31400 (≈ 48.9 mM) | 70200 (≈ 109 mM) | 96400 (≈ 150 mM) | – | CCCCCCCCCCCCCCCCCCCCCC(=O)O[C@@H]1C[C@@H]2c3cc(OC)c(OC)cc3CCN2C[C@H]1CC(C)C [Compd 1-2, (2R,3R, 11bR)-3-isobutyl-9,10-dimethoxy-1,3,4,6,7,11b-hexahydro-2H-pyrido[2,1 a]isoquinolin-2-yl behenate] | – | – |
| – | – | – | – | – | – | – | – | – | – | – | – | – | – | – | COc1cc2c(cc1OC)[C@H]1C[C@@H](OC(=O)[C@@H](N)C(C)C)[C@H](CC(C)C)CN1CC2 [VBZ, (S)-2-amino-3-methyl-butyric acid (2R, 3R, 11bR)-3-isobutyl-9,10-dimethoxy-1,3,4,6,7,11b-hexahydro-2H-pyrido[2,1-a]isoquinolin-2-yl] | can release the active (+)-α-DHTBZ | Ki (VMAT2 [7]): 187 nM |
| – | – | – | – | – | – | – | – | – | – | – | – | – | – | – | COc1cc2c(cc1OC)C1CC(OC(C)=O)C(CC(C)C)CN1CC2 (stereo not shown) [acetate ester of Kilbourn] | no conversion | Ki (VMAT2 [8]): 16 nM |
| no or minimal color change | significantly lower aqueous solubility | < 1 | 1 (≈ 0.00179 mM) | 32.6 (≈ 0.0584 mM) | < 1 | 513000 (≈ 919 mM) | 7800 (≈ 14 mM) | > 10000 | > 10000 | fair to good solubility | 370000 (≈ 663 mM) | 266000 (≈ 478 mM) | 277000 (≈ 496 mM) | 29900 (≈ 53.6 mM) | CCCCCCCCCCCCCCCC(=O)O[C@@H]1C[C@@H]2c3cc(OC)c(OC)cc3CCN2C[C@H]1CC(C)C [Compd 1-1, (2R,3R, 11bR)-3-isobutyl-9,10-dimethoxy-1,3,4,6,7,11b-hexahydro-2H-pyrido[2,1-a]isoquinolin-2-yl palmitate] | – | solubility in organic solvents (in words) ([3]; all tested solvent (DMSO, DMAc, triacetin)): good solubility; hydrolysis to release (+)-α-DHTBZ (in words) ([9]; PLE/compound ratio of 5 or above): can be hydrolyzed; (+)-α-DHTBZ released by ester hydrolysis ([9]; PLE:compound 1-1 1:1, incubation 80 min, 37° C.): BQL |
| – | – | – | – | – | – | – | – | – | – | – | – | – | – | – | COc1cc2c(cc1OC)C1CC(=O)C(CC(C)C)CN1CC2 (racemic) [TBZ, 3-isobutyl-9,10,dimethoxy-1,3,4,6,7,11b-hexahydro-2H-pyrido[2,1-a]isoquinolin-2-one] | – | IC50 (VMAT2 [10]): 3.2 nM |
| significant color change | – | 1380 (≈ 4.32 mM) | 244 (≈ 0.763 mM) | 140 (≈ 0.439 mM) | > 2000 | 555000 (≈ 1740 mM) | 410000 (≈ 1280 mM) | – | – | fair to good solubility | 30000 (≈ 93.9 mM) | 10100 (≈ 31.6 mM) | 8000 (≈ 25 mM) | 26100 (≈ 81.7 mM) | COc1cc2c(cc1OC)[C@H]1C[C@@H](O)[C@H](CC(C)C)CN1CC2 [Compd IV, (2R, 3R, 11bR)-3-isobutyl-9,10-dimethoxy-1,3,4,6,7,11b-hexahydro-2H-pyrido[2,1-a]isoquinolin-2-ol, reference compound] | – | – |
